Source: ChEMBL document CHEMBL1201862, “PubChem BioAssay data set” (2004)
Active and inactive are the calls of the source.

Key:
[1] = HEp-2 cell cytotoxicity, dose response, cytotoxicity control for RSV inhibitor project, HTS (AID 2410); assay type: functional; conditions: human respiratory syncytial virus
[2] = cells
[3] = A Cell Based Secondary Assay To Explore Cytotoxicity of Compounds that Sensitize Mycobacterium Tuberculosis to Beta-Lactam Antibiotics.; assay type: functional
[4] = target: T1, Coagulation factor XII (Homo sapiens, UniProt P00748); experiment: FXIIa inhibitor potency, concentration-response, biochemical (AID 716); assay type: functional
T1 sequence (P00748 whole entry): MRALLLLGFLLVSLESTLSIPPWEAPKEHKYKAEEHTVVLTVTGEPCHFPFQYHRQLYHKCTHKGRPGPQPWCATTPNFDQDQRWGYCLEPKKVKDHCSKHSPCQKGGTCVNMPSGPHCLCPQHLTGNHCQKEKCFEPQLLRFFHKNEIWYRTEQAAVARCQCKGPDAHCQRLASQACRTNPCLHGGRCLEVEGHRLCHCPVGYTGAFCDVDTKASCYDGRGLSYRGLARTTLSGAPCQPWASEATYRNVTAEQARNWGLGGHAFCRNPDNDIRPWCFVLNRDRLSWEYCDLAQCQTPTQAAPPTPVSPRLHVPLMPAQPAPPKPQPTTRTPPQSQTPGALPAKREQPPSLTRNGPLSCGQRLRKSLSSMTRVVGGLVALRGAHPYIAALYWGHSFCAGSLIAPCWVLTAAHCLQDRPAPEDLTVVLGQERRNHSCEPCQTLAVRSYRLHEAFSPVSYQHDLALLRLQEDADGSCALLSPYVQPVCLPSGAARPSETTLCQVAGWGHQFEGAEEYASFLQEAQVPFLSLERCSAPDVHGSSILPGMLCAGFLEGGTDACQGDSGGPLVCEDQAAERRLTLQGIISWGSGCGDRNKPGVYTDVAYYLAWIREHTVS

[5] = target: T2, Protein skinhead-1 (Caenorhabditis elegans, UniProt P34707); assay type: functional
T2 sequence (P34707 whole entry): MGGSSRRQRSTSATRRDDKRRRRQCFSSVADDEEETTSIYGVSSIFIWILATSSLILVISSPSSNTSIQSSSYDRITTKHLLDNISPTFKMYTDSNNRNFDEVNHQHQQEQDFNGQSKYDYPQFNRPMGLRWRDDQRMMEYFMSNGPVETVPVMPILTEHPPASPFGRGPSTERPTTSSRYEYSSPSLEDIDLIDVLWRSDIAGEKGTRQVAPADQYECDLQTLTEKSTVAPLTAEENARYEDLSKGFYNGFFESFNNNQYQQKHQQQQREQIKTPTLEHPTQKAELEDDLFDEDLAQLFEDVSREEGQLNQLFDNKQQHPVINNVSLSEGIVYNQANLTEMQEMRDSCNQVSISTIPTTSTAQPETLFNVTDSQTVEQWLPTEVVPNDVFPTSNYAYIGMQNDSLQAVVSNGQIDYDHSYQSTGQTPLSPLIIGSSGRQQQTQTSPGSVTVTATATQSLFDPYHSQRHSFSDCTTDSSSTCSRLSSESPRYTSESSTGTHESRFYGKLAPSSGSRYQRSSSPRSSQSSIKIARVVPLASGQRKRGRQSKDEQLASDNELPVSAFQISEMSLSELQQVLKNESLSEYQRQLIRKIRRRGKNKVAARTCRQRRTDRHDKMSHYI

[6] = target: G-protein coupled receptor 55 (Homo sapiens, UniProt Q9Y2T6); experiment: GPR55 antagonists blocking LPI-driven arrestin recruitment, primary screen, imaging, U2OS, beta-arrestin-GFP, LPI agonist (AID 2013); assay type: functional;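 further: antagonist potency measured as reduced agonist-driven arrestin aggregation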
Chain of G-protein coupled receptor 55 (Q9Y2T6 whole entry): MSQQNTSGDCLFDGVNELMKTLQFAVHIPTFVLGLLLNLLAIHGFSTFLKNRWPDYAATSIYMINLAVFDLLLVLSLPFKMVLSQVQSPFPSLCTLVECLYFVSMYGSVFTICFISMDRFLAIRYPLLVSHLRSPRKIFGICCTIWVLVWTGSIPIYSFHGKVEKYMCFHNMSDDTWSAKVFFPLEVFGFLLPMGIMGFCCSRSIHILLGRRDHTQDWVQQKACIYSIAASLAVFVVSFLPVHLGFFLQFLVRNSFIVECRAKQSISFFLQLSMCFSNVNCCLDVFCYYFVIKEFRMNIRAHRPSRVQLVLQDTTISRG

[7] = target: T3, Calpain-2 catalytic subunit (Sus scrofa, UniProt P43367); experiment: pig calpain II inhibitor potency, dose response, biochemical, fluorogenic peptide substrate (AID 1420); assay type: functional
T3 sequence (P43367 whole entry): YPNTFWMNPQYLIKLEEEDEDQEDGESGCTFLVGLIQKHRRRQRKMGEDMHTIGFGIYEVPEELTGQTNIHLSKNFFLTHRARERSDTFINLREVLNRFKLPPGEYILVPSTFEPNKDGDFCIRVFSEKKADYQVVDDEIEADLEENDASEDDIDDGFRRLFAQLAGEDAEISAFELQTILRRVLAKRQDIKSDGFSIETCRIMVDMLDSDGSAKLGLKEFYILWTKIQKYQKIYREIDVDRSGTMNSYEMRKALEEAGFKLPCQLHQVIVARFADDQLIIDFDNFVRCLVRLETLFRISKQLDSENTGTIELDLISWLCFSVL

[8] = system: HeLa; experiment: HeLa cell cytotoxicity, dose response, cytotoxicity control, 24 h, cherry-picked samples (AID 504726); assay type: functional, cell-based; conditions: Homo sapiens;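 further: potency for cytotoxicity as loss of luminescence signal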
[9] = target: Eukaryotic translation initiation factor 4E (Mus musculus, UniProt P63073); experiment: eIF4E–eIF4G protein interaction inhibitors, dose response, biochemical, TR-FRET (AID 855); assay type: functional;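 further: potency for disrupting eIF4E binding to eIF4GI seen as loss of FRET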
Chain of Eukaryotic translation initiation factor 4E (P63073 whole entry): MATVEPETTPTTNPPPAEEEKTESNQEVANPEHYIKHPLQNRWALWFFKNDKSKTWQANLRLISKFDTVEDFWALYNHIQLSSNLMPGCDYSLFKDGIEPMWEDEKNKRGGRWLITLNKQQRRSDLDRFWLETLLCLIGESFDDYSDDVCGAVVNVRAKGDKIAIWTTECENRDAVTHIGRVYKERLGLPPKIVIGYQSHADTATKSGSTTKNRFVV

[10] = target: T4, Heat shock factor protein 1 (Mus musculus, UniProt P38532); experiment: inhibition of MG132-induced HSE-luciferase signal, confirmation, cell-based, NIH3T3, luminescence, dose retest (AID 2382); assay type: functional;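 further: NIH3T3 fibroblasts with HSF1-driven luciferase reporter stressed by proteasome inhibitor MG132; luminescence from HSF1-driven luciferase expression after 8 hours of MG132 stress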
T4 sequence (P38532 whole entry): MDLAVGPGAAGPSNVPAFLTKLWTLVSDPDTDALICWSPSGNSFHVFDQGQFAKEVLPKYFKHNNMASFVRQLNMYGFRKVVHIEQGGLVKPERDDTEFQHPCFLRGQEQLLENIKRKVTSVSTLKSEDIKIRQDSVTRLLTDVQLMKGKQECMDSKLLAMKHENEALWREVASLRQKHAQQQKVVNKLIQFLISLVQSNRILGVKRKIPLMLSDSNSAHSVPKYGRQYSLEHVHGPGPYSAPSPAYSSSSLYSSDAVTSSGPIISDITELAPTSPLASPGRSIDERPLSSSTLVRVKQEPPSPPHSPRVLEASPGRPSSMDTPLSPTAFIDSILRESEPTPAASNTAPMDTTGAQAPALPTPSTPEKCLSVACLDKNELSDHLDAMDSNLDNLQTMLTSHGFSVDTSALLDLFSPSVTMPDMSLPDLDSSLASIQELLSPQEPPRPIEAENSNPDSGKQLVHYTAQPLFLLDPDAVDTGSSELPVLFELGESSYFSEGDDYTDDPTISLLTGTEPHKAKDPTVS

[11] = inhibitors of intracellular T. cruzi replication, confirmation, NIH3T3 host cells, beta-gal luminescence (AID 2044); assay type: functional, cell-based;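 further: intracellular parasites grown in NIH/3T3 mouse fibroblasts as host cells; luminescent beta-galactosidase reporter signal from transgenic T. cruzi replicating inside host cells; inhibitors lower the luminescence signal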
[12] = cytotoxicity toward NIH3T3 fibroblasts, dose response, counter-screen, cell-based, ATP luminescence, mouse fibroblasts (AID 2010); assay type: functional;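 further: cells exposed to compound for about 90 hours before reading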
[13] = target: T5, Luciferin 4-monooxygenase (Photinus pyralis, UniProt P08659); experiment: firefly luciferase enzyme inhibitors, dose response, biochemical, luminescence (AID 1891)
T5 sequence (P08659 whole entry): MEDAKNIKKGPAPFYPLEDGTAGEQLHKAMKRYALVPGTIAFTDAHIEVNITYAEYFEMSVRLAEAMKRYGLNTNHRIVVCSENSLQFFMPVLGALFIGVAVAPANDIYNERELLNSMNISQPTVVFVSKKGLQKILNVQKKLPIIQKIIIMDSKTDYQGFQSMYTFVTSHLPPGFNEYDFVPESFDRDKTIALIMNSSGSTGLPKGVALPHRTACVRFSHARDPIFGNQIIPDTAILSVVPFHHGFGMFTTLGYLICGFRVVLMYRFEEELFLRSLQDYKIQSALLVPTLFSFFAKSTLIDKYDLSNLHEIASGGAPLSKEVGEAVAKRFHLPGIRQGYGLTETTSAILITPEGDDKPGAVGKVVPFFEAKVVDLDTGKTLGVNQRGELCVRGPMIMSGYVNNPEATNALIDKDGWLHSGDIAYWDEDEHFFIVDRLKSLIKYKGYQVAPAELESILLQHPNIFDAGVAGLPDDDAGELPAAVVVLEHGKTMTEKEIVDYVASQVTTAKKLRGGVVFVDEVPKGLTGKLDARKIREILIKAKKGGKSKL

[14] = Luminescence Cell-Based Dose Confirmation HTS to Identify Inhibitors of Platelet Dense Granule Release. [Related pubchem assays: 1663 (Primary HTS), 1678 (Summary of Project)]; assay type: functional
[15] = target: T6, Microphthalmia-associated transcription factor (Homo sapiens, UniProt O75030); experiment: TRPM1 promoter luciferase signal decrease, dose response, MITF inhibitor project, cell-based, SK-MEL-5, cherry-picked, set 3 (AID 493073); assay type: functional
T6 sequence (O75030 whole entry): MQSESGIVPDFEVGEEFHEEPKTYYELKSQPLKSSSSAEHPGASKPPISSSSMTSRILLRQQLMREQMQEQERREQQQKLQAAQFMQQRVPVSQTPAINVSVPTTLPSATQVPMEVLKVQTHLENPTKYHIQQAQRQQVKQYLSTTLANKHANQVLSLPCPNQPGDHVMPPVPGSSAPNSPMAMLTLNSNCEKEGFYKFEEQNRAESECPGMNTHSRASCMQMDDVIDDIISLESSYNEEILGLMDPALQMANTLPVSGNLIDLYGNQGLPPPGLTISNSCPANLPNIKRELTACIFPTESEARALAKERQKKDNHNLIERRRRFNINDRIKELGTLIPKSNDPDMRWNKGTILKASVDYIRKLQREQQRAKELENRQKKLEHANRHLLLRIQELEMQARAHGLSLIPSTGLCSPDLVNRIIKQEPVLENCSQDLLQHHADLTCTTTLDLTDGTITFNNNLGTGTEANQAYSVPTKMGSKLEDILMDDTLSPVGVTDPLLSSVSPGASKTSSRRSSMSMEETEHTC

[16] = system: A-375; experiment: A375 melanoma cell viability reduction, dose response, counter-screen for MITF modulator project, cherry-pick samples, set 2 (AID 540335); assay type: functional, cell-based; conditions: Homo sapiens
[17] = Shn3 3'UTR reporter inhibitors, dose response, cell-based, Clone20 osteoblasts, firefly luciferase, cherry-picked (AID 624132); assay type: functional;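 further: firefly luciferase luminescence from reporter carrying the Shn3 3'UTR in osteoblasts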
[18] = HepG2 cell cytotoxicity, dose response, cytotoxicity control for Shn3 inhibitor project, CellTiter-Glo, cherry-picked (AID 624134); assay type: functional, cell-based
[19] = control 3'UTR Renilla luciferase suppression, dose response, counter-screen for Shn3 inhibitor project, cell-based, Clone20-Shn3RL, cherry-picked (AID 624133); assay type: functional
[20] = A549 cell cytotoxicity, dose response, cytotoxicity control, plate reader, cherry-pick, antagonist series (AID 743412); assay type: functional, cell-based
[21] = LGR2 antagonists, dose response, cell-based, HEK293, CRE-luciferase reporter, cherry pick, set 2 (AID 743343); assay type: functional;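 further: transfected cells were stimulated with diluted bursicon conditioned medium after compound addition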
[22] = MC4R antagonists, dose response, counter-screen for LGR2 antagonist project, cell-based, plate reader, cherry pick (AID 743444); assay type: functional;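 further: transfected HEK 293 cells stimulated with alpha-MSH peptide; potency of inhibitors of the alpha-MSH evoked signal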
[23] = HEK293 cell cytotoxicity, dose response, cytotoxicity control, plate reader, cherry-picked samples (AID 743446); assay type: functional, cell-based
[24] = microbe, parasite or virus in culture; assay type: functional; conditions: Mycobacterium tuberculosis
[25] = target: T5, Luciferin 4-monooxygenase; experiment: Counter Screen for Luciferase-based Assay Positives. [Related pubchem assays: 620, 618, 411 ]
[26] = system: HT-1080; experiment: cytotoxicity in HT1080 fibrosarcoma cells, cell-based, fluorescence readout (AID 620); assay type: functional; conditions: Homo sapiens
[27] = THP-1 cell cytotoxicity, dose response, cytotoxicity control for non-replicating M. tuberculosis project (AID 489025); assay type: functional
[28] = Vero E6 cell cytotoxicity, dose response, cytotoxicity control for non-replicating M. tuberculosis project, secondary assay (AID 492998); assay type: functional, VeroE6; conditions: Vero C1008
[29] = cells; assay type: functional
[30] = target: FAD-linked sulfhydryl oxidase ALR (Homo sapiens, UniProt P55789); experiment: inhibitors of human ALR sulfhydryl oxidase, dose response, biochemical, H2O2 detection, luminescence, cherry-pick (AID 493248)
Chain of FAD-linked sulfhydryl oxidase ALR (P55789 whole entry): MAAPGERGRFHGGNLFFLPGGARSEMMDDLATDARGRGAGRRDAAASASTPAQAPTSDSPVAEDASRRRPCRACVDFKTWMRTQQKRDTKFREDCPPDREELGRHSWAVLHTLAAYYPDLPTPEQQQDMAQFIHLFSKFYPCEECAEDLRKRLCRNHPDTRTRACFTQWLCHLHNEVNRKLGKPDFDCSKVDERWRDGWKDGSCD

## CC(Nc1ccccc1N1CCCCC1)C(=O)N1CCc2ccccc21 (stereo not given)
[1]
  CC50: > 50 µM (active)
[2]
  IC50: 15.4 µM (active)

## COc1ccccc1CNC(=O)c1ccc(SC)cc1OC
[1]
  CC50: > 50 µM (active)
[3]
  CC50: > 40 µM (active)

## CCOC(=O)N1CCN(C(=O)C2CC(c3ccc(F)cc3)=NO2)CC1 (stereo not given)
[4]
  IC50: > 50 µM (inactive)

## Cc1c(C(=O)N2CCN(S(=O)(=O)c3ccccc3F)CC2)oc2c(Cl)cccc12
[1]
  CC50: 31.6 µM (active)
[5]
  IC50: > 100 µM (inactive)
[2]
  IC50: > 50 µM (active)

## c1ccc(CCNc2ncnc3scc(C4COc5ccccc5O4)c23)cc1 (stereo not given)
[6]
  IC50: 3.59 µM (active)
[7]
  IC50: 10.4 µM (not active)

## Cc1cc(NC(=O)CCC(=O)N(CCC(C)C)C(C(=O)NC2CCCC2)c2cccnc2)no1 (stereo not given)
[8]
  AC50: > 350 µM (inactive)

## Cc1ccc(-c2nnc(O)c(O)c2N=Nc2ccccc2)cc1
[3]
  CC50: > 40 µM (active)

## CC(=O)c1c(C)nn(CC(O)COc2ccc3c(c2)CCC3)c1C (stereo not given)
[4]
  IC50: > 50 µM (inactive)

## NC1=NC(=O)/C(=C\c2ccsc2)S1
[9]
  IC50: 50 µM (inactive)

## Cc1noc(C)c1COC(=O)Cc1ccc(Cl)cc1
[4]
  IC50: > 50 µM (inactive)

## Cc1nc2ccc(S(=O)(=O)NC(C(=O)Nc3nc4ccc(Cl)cc4s3)C(C)C)cc2s1 (stereo not given)
[6]
  IC50: 0.894 µM (active)

## O=C(C1=C[C@H](c2ccc(Br)cc2)C[C@H](OCCCCO)O1)N1CCN(Cc2ccc3c(c2)OCO3)CC1
[3]
  CC50: > 40 µM (active)
[10]
  EC50: > 195 µM (not active)
[11]
  EC50: 0.346 µM (active)
[12]
  EC50: > 60 µM (not active)

## O=C1CC(N2CCN(Cc3ccc4c(c3)OCO4)CC2)C(=O)N1c1cccc(Cl)c1 (stereo not given)
[9]
  IC50: > 64 µM (inactive)

## COc1cc(SC)ccc1C(=O)Nc1nc(C)cs1
[10]
  EC50: 0.845 µM (active)
[13]
  EC50: 0.511 µM (active)
[14]
  EC50: 7.22 µM (active)
[8]
  AC50: 42.3 µM (active)
[15]
  AC50: 4.81 µM (active)
[16]
  AC50: 47.4 µM (active)
[17]
  AC50: 7.09 µM (active)
[18]
  AC50: > 70 µM (inactive)
[19]
  AC50: 35.2 µM (active)
[20]
  AC50: 43.9 µM (active)
[21]
  AC50: 0.49 µM (active)
[22]
  AC50: 0.491 µM (active)
[23]
  AC50: 24.9 µM (active)

## CCCCOCCCn1c(-c2ccco2)nc2nc3ccccc3nc21
[24]
  CC50: > 40 µM (active)
[9]
  IC50: > 64 µM (inactive)

## c1ccc(-c2nc3cc4ccccc4cc3[nH]2)nc1
[25]
  EC50: 6.86 µM (active)
[26]
  EC50: 14.6 µM (active)
[5]
  IC50: 9.19 µM (active)

## COc1cc(/C=C/c2cc(C(=O)O)c3ccccc3n2)ccc1OC(F)F
[1]
  CC50: 35.7 µM (active)
[2]
  IC50: 28.6 µM (active)

## O=C(N/N=C\c1ccc([N+](=O)[O-])o1)c1cncc(Br)c1
[11]
  EC50: 0.389 µM (active)
[12]
  EC50: > 60 µM (not active)
[8]
  AC50: > 350 µM (inactive)
[27]
  CC50: 27.4 µM (active)
[28]
  CC50: > 20 µM (active)
[29]
  IC50: 3.94 µM (active)

## Clc1c(CSc2nc3ccccc3o2)nc2ccccn12
[25]
  EC50: 9.33 µM (active)
[26]
  EC50: > 50 µM (not active)
[30]
  AC50: 7.37 µM (active)
